Assay results taken from the supplement of paper PMC10307832.

Assays:
Assay in all cases: relative viability (nuclei count vs DMSO), 5 days (fraction); higher = more cells survive
Gemcitabine + OSI-027 = compound: Nc1ccn([C@@H]2O[C@H](CO)[C@@H](O)C2(F)F)c(=O)n1 [Gemcitabine] + COc1cccc2cc(-c3nc([C@H]4CC[C@H](C(=O)O)CC4)n4ncnc(N)c34)[nH]c12 [OSI-027] (partner 0.5 µM)
How it was run: (§1)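 Values are medians from duplicate plates. Each reflects relative viability, defined as the nuclei count of treated wells over that of vehicle wells. Lung cancer cell lines in 1536-well plates were pin-tool dosed one day after seeding with one drug alone or with a fixed anchor-drug dose plus five library-drug doses (not always all listed) in √10 steps, then fixed, stained and imaged at 4× after 5 days.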

Gemcitabine + Lapatinib = compound: Nc1ccn([C@@H]2O[C@H](CO)[C@@H](O)C2(F)F)c(=O)n1 [Gemcitabine] + CS(=O)(=O)CCNCc1ccc(-c2ccc3ncnc(Nc4ccc(OCc5cccc(F)c5)c(Cl)c4)c3c2)o1 [Lapatinib] (partner 2 µM)
How it was run: as §1

Gemcitabine + Linsitinib = compound: Nc1ccn([C@@H]2O[C@H](CO)[C@@H](O)C2(F)F)c(=O)n1 [Gemcitabine] + C[C@]1(O)C[C@@H](c2nc(-c3ccc4ccc(-c5ccccc5)nc4c3)c3c(N)nccn32)C1 [Linsitinib] (partner 1 µM)
How it was run: as §1

Gemcitabine + Alpelisib = compound: Nc1ccn([C@@H]2O[C@H](CO)[C@@H](O)C2(F)F)c(=O)n1 [Gemcitabine] + Cc1nc(NC(=O)N2CCC[C@H]2C(N)=O)sc1-c1ccnc(C(C)(C)C(F)(F)F)c1 [Alpelisib] (partner 2 µM)
How it was run: as §1

Cell Line	relative viability (Gemcitabine + OSI-027; first compound 0.001 µM)	relative viability (Gemcitabine + OSI-027; first compound 0.003162 µM)	relative viability (Gemcitabine + OSI-027; first compound 0.01 µM)	relative viability (Gemcitabine + OSI-027; first compound 0.03162 µM)	relative viability (Gemcitabine + OSI-027; first compound 0.1 µM)	relative viability (Gemcitabine + Lapatinib; first compound 0.001 µM)	relative viability (Gemcitabine + Lapatinib; first compound 0.003162 µM)	relative viability (Gemcitabine + Lapatinib; first compound 0.01 µM)	relative viability (Gemcitabine + Lapatinib; first compound 0.03162 µM)	relative viability (Gemcitabine + Lapatinib; first compound 0.1 µM)	relative viability (Gemcitabine + Linsitinib; first compound 0.001 µM)	relative viability (Gemcitabine + Linsitinib; first compound 0.003162 µM)	relative viability (Gemcitabine + Linsitinib; first compound 0.01 µM)	relative viability (Gemcitabine + Linsitinib; first compound 0.03162 µM)	relative viability (Gemcitabine + Linsitinib; first compound 0.1 µM)	relative viability (Gemcitabine + Alpelisib; first compound 0.001 µM)	relative viability (Gemcitabine + Alpelisib; first compound 0.003162 µM)	relative viability (Gemcitabine + Alpelisib; first compound 0.01 µM)	relative viability (Gemcitabine + Alpelisib; first compound 0.03162 µM)	relative viability (Gemcitabine + Alpelisib; first compound 0.1 µM)
NCI-H2405	0.641	0.314	0.32	0.211	0.196	1.03	0.445	0.362	0.243	0.162	0.965	0.651	0.393	0.237	0.182	0.753	0.588	0.287	0.196	0.179
NCI-H3122	1.05	0.918	0.246	0.133	0.112	1.02	1.04	0.926	0.476	0.243	1.04	0.957	0.892	0.262	0.174	0.824	0.774	0.627	0.234	0.165
PC-3 [JPC-3]	0.799	0.656	0.378	0.259	0.257	0.468	0.416	0.424	0.278	0.266	1.03	0.77	0.692	0.342	0.309	1.13	0.736	0.649	0.264	0.248
PC-14	0.595	0.156	0.0375	0.0459	0.0298	0.323	0.234	0.203	0.0925	0.0562	0.936	0.6	0.366	0.147	0.0669	1.02	0.688	0.468	0.0826	0.0459
RERF-LC-KJ	0.62	0.508	0.418	0.261	0.225	0.858	0.821	0.89	0.909	0.407	0.856	0.939	0.821	0.739	0.296	0.853	0.849	0.856	0.496	0.228
SK-LU-1	0.352	0.208	0.146	0.165	0.143	0.89	0.509	0.162	0.134	0.195	1.11	0.51	0.245	0.211	0.219	0.745	0.337	0.246	0.224	0.192
SK-MES-1	0.367	0.195	0.142	0.122	0.127	0.499	0.468	0.295	0.201	0.203	1.07	0.555	0.292	0.197	0.18	0.658	0.454	0.21	0.189	0.183
SW 1573	0.512	0.381	0.0711	0.0797	0.0431	1.07	0.994	0.681	0.148	0.082	0.904	0.726	0.148	0.127	0.0847	0.749	0.592	0.295	0.0967	0.0846
UMC-11	0.474	0.474	0.478	0.352	0.197	1.04	1.06	0.98	0.879	0.208	0.993	1.03	0.963	0.956	0.382	1.15	0.931	0.885	0.792	0.239
